Patent publication US10647690B2, “2,3-epoxy succinyl derivative, preparation method and use thereof” (Institute of Pharmacology and Toxicology Academy of …, priority 2016, dated 2020)
Like-named read-outs stand apart in the source and are kept apart here.

Target: T1, Cathepsin K (Homo sapiens, UniProt P43235)
T1 construct: purchased Biovision K150-100
T1 sequence (P43235 115-329): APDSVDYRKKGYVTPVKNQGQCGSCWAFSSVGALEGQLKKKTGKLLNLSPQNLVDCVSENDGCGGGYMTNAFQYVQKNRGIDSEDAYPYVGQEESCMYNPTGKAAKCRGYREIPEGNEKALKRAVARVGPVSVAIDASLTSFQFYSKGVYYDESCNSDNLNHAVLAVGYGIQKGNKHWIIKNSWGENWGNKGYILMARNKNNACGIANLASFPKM
Assay: Preliminary screening of Cathepsin K (Cathepsin K Inhibitor Screening Kit K150-100, Biovision)
Assay type: biochemical
Settings: relative inhibition rate vs 10 μM FF-FMK control; for inhibition at 1 µM / Inhibition % (1 μM) replicate 1 / Inhibition % (1 μM) replicate 2: 1 μM compound; for inhibition at 10 µM / Inhibition % (10 μM) replicate 1 / Inhibition % (10 μM) replicate 2: 10 μM compound
Protocol: 1. Method for preliminary screening of Cathepsin K:
Preliminary screening of Cathepsin K was performed by using Cathepsin K Inhibitor Screening Kit (Product No. K150-100) from Biovision Company.
1.1.1 Preparation of Cathepsin K enzyme solution: Cathepsin K enzyme (40 μl) and Cathepsin K reagent (80 μl) were added to Cathepsin K buffer (3.88 ml), and were mixed well, to prepare Cathepsin K enzyme solution with a volume of 4 ml, which was placed on ice for further use.
1.1.2 Preparation of a compound solution: different compounds were separately weighed and dissolved in DMSO (methyl sulfoxide), to prepare solutions at a concentration of 30 mM as stock solutions, and for some insoluble compounds, they were prepared into solutions at a concentration of 10 mM as stock solutions; the 30 mM and 10 mM compound stock solutions were diluted to 1 mM and 100 μM DMSO solutions, respectively; 1 mM and 100 μM compound DMSO solutions (2 μl) were separately added to CTSK buffer (18 μl), to prepare compound solutions at a final concentration of 100 μM and 10 μM, respectively, wherein the concentration of DMSO was 10%.
1.1.3 Preparation of Cathepsin K substrate solution: Cathepsin K substrate (160 μl) was added to Cathepsin K buffer (3.44 ml), and mixed homogeneously, to prepare Cathepsin K substrate solution with a volume of 3.6 ml, which was placed on ice for further use.
1.2 Method for screening Cathepsin K inhibitor: Cathepsin K enzyme solution (prepared in Item 1.1.1) was added to a 384-well plate (ProxiPlate-384 Plus, Perkinelmer) at 10 μl/well, and centrifuged at 1000 rpm for 1 min; the compound solution (prepared in Item 1.1.2) was then added at 2 µl/well, and centrifuged at 1000 rpm for 1 min, and every concentration was repeated in two wells; the plate was placed in a 25° C. incubator for 15 min; Cathepsin K substrate solution was then added at 8 μl/well, and centrifuged at 1000 rpm for 1 min; and finally, the fluorescence signal was read in Enspire, wherein the exciting light was at a wavelength of 400 nm, the emitting light was at a wavelength of 505 nm, and continuous reading was performed at 37° C. for 120 min.
1.3 Data analysis: the slope (S) for all the samples was calculated by ΔRFU (RFU2−RFU1) and time ΔT (T2−T1), including negative control (Enzyme Control, EC) and positive control (Inhibitor Control, IC: 10 μM FF-FMK), and the calculation formula was as followed: Relative inhibition rate %=(SEC−SS)/(SEC−SIC)*100.

[1] = replicate 1, read-out: Inhibition % (1 μM) replicate 1
[2] = replicate 2, read-out: Inhibition % (1 μM) replicate 2
[3] = replicate 1, read-out: Inhibition % (10 μM) replicate 1
[4] = replicate 2, read-out: Inhibition % (10 μM) replicate 2

Row | Structure (SMILES) | inhibition at 1 µM [1] | inhibition at 1 µM [2] | inhibition at 10 µM [3] | inhibition at 10 µM [4] | Inhibition % (1 μM) replicate 1 (replicate 1) | Inhibition % (1 μM) replicate 2 (replicate 2) | Inhibition % (10 μM) replicate 1 (replicate 1) | Inhibition % (10 μM) replicate 2 (replicate 2)
1 | CCOC(=O)[C@H]1O[C@@H]1C(=O)N[C@@H](CCSC)C(=O)NCCC(C)C [Compound 1, (2s, 3s)-2-ethoxycarbonyl-3-[2-[(s)-4-methylthio-1-carbonyl-1-(isopentylamino)butane]formylamino]epoxysuccinic acid] |  |  |  |  | 17.79% | 20.59% | 41.60% | 47.08%
2 | CCCCCNC(=O)[C@H](CCSC)NC(=O)[C@H]1O[C@@H]1C(=O)OCC [Compound 2, (2s, 3s)-2-ethoxycarbonyl-3-[2-[(s)-4-methylthio-1-carbonyl-1-(pentylamino)butane]formylamino]epoxysuccinic acid] | 28.6% | 33.2% | 59.5% | 60% |  |  |  | 
3 | CCOC(=O)[C@H]1O[C@@H]1C(=O)N[C@H](CSCc1ccccc1)C(=O)NCC(C)CC (stereo partly drawn) [Compound 14, (2s, 3s)-2-ethoxycarbonyl-3-[2-[(s)-3-benzylthio-1-carbonyl-1-(2-methylbutylamino)propane]formylamino]epoxysuccinic acid] |  |  |  |  | 31.16% | −7.18% | 42.39% | 41.33%
4 | CCOC(=O)[C@H]1O[C@@H]1C(=O)N[C@@H](CCSC)C(=O)NCC(C)CC (stereo partly drawn) [Compound 3, (2s, 3s)-2-ethoxycarbonyl-3-[2-[(s)-4-methylthio-1-carbonyl-1-(2-methylbutylamino)butane]formylamino]epoxysuccinic acid] | 31% | 16.6% | 42% | 36.7% |  |  |  | 
5 | CCOC(=O)[C@H]1O[C@@H]1C(=O)N[C@@H](CCSC)C(=O)N1CCCC(C)C1 (stereo partly drawn) [Compound 7, (2s, 3s)-2-ethoxycarbonyl-3-[2-[(s)-4-methylthio-1-carbonyl-1-(3-methylpiperidinyl)butane]formylamino]epoxysuccinic acid] | 33% | -19.6% | 37.4% | 28.4% |  |  |  | 
6 | CCOC(=O)[C@H]1O[C@@H]1C(=O)N[C@@H](CSCc1ccccc1)C(=O)NCC(C)(C)C [Compound 15, (2s, 3s)-2-ethoxycarbonyl-3-[2-[(s)-3-benzylthio-1-carbonyl-1-(neopentylamino)propane]formylamino]epoxysuccinic acid] | 28.1% | 35.6% | 50.1% | 48.6% |  |  |  | 
7 | CCOC(=O)[C@H]1O[C@@H]1C(=O)N[C@@H](CCSC)C(=O)NCCc1ccc(OC)cc1 [Compound 10, (2s, 3s)-2-ethoxycarbonyl-3-[2-[(s)-4-methylthio-1-carbonyl-1-(4-methoxyphenylethylamino)butane]formylamino]epoxysuccinic acid] | 33.1% | 35.8% | 80.2% | 66.5% |  |  |  | 
8 | CCOC(=O)[C@H]1O[C@@H]1C(=O)N[C@@H](CCSC)C(=O)N1CCCC1 [Compound 11, (2s, 3s)-2-ethoxycarbonyl-3-[2-[(s)-4-methylthio-1-carbonyl-1-(tetrahydropyrrolyl)butane]formylamino]epoxysuccinic acid] | 15.3% | -7.42% | 32% | 15.2% |  |  |  | 

Now from value to compound:

Row | inhibition at 1 µM [1] | inhibition at 1 µM [2] | inhibition at 10 µM [3] | inhibition at 10 µM [4] | Inhibition % (1 μM) replicate 1 (replicate 1) | Inhibition % (1 μM) replicate 2 (replicate 2) | Inhibition % (10 μM) replicate 1 (replicate 1) | Inhibition % (10 μM) replicate 2 (replicate 2) | Structure (SMILES)
9 | 30.2% | 37% | 36.3% | 50.4% |  |  |  |  | CCOC(=O)[C@H]1O[C@@H]1C(=O)N[C@@H](CSCc1ccccc1)C(=O)NCCCCc1ccccc1 [Compound 20, (2s, 3s)-2-ethoxycarbonyl-3-[2-[(s)-3-benzylthio-1-carbonyl-1-(4-phenylbutylamino)propane]formylamino]epoxysuccinic acid]
10 | 31.6% | 26.9% | 29.6% | 31.7% |  |  |  |  | CCOC(=O)[C@H]1O[C@@H]1C(=O)N[C@@H](CCSC)C(=O)NCC(C)(C)C [Compound 30, (2s, 3s)-2-ethoxycarbonyl-3-[2-[(s)-4-methylthio-1-carbonyl-1-(neopentylamino)butane]formylamino]epoxysuccinic acid]
11 | 16% | -4.45% | 29.7% | 19.5% |  |  |  |  | CCOC(=O)[C@H]1O[C@@H]1C(=O)N[C@@H](CSCc1ccccc1)C(=O)N1CCCC1 [Compound 22, (2s, 3s)-2-ethoxycarbonyl-3-[2-[(s)-3-benzylthio-1-carbonyl-1-(tetrahydropyrrolyl)propane]formylamino]epoxysuccinic acid]
12 |  |  |  |  | 35.73% | 44.11% | 67.87% | 63.25% | CCOC(=O)[C@H]1O[C@@H]1C(=O)N[C@H](CSCc1ccccc1)C(=O)NCCc1ccc(OC)cc1 [Compound 26, (2s, 3s)-2-ethoxycarbonyl-3-[2-[(s)-3-benzylthio-1-carbonyl-1-(4-methoxyphenylethylamino)propane]formylamino]epoxysuccinic acid]
13 | 37.5% | 38.7% | 36.2% | 40.6% |  |  |  |  | CCOC(=O)[C@H]1O[C@@H]1C(=O)N[C@@H](CCSC)C(=O)NC(C)CC (stereo partly drawn) [Compound 32]
14 | 23.5% | 32.7% | 56.1% | 48.2% |  |  |  |  | CCCCCCNC(=O)[C@H](CSCc1ccccc1)NC(=O)[C@H]1O[C@@H]1C(=O)OCC [Compound 18, (2s, 3s)-2-ethoxycarbonyl-3-[2-[(s)-3-benzylthio-1-carbonyl-1-(hexylamino)propane]formylamino]epoxysuccinic acid]
15 | 17.5% | 21.6% | 61.4% | 63.5% |  |  |  |  | CCOC(=O)[C@H]1O[C@@H]1C(=O)N[C@@H](CCSC)C(=O)N1CCSCC1 [Compound 36, (2s, 3s)-2-ethoxycarbonyl-3-[2-[(s)-4-methylthio-1-carbonyl-1-(thiomorpholinyl)butane]formylamino]epoxysuccinic acid]
16 | 33.1% | 29.9% | 67.2% | 53% |  |  |  |  | CCOC(=O)[C@H]1O[C@@H]1C(=O)N[C@@H](CSCc1ccccc1)C(=O)NCCc1ccc(C)cc1 [Compound 21, (2s, 3s)-2-ethoxycarbonyl-3-[2-[(s)-3-benzylthio-1-carbonyl-1-(p-methylphenylethylamino)propane]formylamino]epoxysuccinic acid]
17 | 32% | 20.4% | 33.5% | 27.9% |  |  |  |  | CCOC(=O)[C@H]1O[C@@H]1C(=O)N[C@@H](CSCc1ccccc1)C(=O)NC(C)CC (stereo partly drawn) [Compound 19, (2s, 3s)-2-ethoxycarbonyl-3-[2-[(s)-3-benzylthio-1-carbonyl-1-(1-methylpropylamino)propane]formylamino]epoxysuccinic acid]
18 | 37.8% | 22.8% | 72% | 61.1% |  |  |  |  | CCOC(=O)[C@H]1O[C@@H]1C(=O)N[C@@H](CCSC)C(=O)N1CCCCC1CC (stereo partly drawn) [Compound 35, (2s, 3s)-2-ethoxycarbonyl-3-[2-[(s)-4-methylthio-1-carbonyl-1-(2-ethylpiperidinyl)butane]formylamino]epoxysuccinic acid]
